Literature values as cited in patent US11453692B2, “Non-caloric sweeteners and methods for synthesizing” (Conagen Inc., priority 2014, dated 2022).

Settings: sweetness relative to sucrose

| Compound | times sweeter than sucrose |
| --- | --- |
| C=C1C[C@@]23CCC4[C@](C)(C(=O)OC5OC(CO)C(O)C(O)C5O)CCC[C@@]4(C)[C@@H]2CC(OC2OC(CO)C(O)C(OC4OC(CO)C(O)C(O)C4O)C2OC2OC(C)C(O)C(O)C2O)C1C3 (some centres unmarked) [Rebaudioside C] | 40-60 times |
| Stevioside | 100-150 times |
